In patent US20190284168A1, “PYRAZOLE DERIVATIES AS SGC STIMULATORS” (IRONWOOD PHARMACEUTICALS, INC., priority 2014, published 2019):

Experiments:
[1] = target: T1, human recombinant soluble guanylate cyclase enzyme α1β1 (Homo sapiens, UniProt Q02108+Q02153); assay: Purified human recombinant sGC α1β1 enzyme assay in the presence of DETA-NONOate (cGMP HTRF); assay type: biochemical; settings: 30 uM DETA NONOate; 50% of maximal response of 30 uM Compound Y; read-out: sGC_Enz_HTRF_a1b1 EC50/IC50 Abs (Norm) (nM) Binned
T1 construct: purchased Enzo Life Sciences ALX-201-177
T1 sequence (Q02108 1-690): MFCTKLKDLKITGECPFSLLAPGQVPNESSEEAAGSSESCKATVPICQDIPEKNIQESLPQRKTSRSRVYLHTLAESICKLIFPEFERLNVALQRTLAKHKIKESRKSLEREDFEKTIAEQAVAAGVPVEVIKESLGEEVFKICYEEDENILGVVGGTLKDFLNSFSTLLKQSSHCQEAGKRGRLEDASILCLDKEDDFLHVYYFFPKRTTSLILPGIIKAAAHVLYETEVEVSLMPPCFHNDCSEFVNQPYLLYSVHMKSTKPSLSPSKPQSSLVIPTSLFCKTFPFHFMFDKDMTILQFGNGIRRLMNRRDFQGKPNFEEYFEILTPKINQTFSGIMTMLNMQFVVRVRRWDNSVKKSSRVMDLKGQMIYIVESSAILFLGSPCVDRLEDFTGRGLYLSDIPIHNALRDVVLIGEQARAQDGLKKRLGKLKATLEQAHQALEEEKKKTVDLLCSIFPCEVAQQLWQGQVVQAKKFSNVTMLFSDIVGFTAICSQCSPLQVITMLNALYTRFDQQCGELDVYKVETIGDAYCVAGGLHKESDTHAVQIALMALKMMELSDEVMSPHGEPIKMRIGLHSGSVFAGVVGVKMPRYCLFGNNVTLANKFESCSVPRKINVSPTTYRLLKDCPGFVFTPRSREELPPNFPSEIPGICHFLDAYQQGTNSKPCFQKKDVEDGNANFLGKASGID
T1 sequence (Q02153 1-619): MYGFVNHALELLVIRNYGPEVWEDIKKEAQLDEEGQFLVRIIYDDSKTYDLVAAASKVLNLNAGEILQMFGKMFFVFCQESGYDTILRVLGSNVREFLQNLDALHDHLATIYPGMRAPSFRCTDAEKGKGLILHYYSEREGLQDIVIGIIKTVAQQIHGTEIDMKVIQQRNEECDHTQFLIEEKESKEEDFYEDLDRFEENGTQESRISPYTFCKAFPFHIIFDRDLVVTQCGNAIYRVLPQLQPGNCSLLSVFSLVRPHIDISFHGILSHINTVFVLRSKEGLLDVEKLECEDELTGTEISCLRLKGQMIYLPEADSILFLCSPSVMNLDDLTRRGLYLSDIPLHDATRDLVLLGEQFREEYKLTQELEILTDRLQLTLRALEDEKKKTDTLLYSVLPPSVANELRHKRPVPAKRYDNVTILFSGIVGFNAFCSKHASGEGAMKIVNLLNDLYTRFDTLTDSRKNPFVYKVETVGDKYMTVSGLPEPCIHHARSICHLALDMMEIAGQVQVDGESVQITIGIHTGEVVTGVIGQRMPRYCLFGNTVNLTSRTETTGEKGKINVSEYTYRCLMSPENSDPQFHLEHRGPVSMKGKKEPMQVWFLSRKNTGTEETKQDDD
Description: Purified human recombinant soluble guanylate cyclase enzyme α1β1 (h sGC) obtained from Enzo Life Sciences (P/N: ALX-201-177) was used to evaluate the activity of test compounds. The assay reactions contained 0.1 M Tris (pH 8.0), 0.5 mg/mL BSA, 2 mM DTT, 4 mM MgCl2, 30 uM DETA NONOate (Enzo Life Science P/N: ALX-430-014), and 12.5 ng/ml human soluble guanylate cyclase enzyme. […] Guanosine 5'-triphosphate (Sigma-Aldrich P/N: […]) was added to a final concentration of 300 μM and enzyme reactions were incubated (100 μL, 384-well plate format) at 37° C. for 20 minutes. The controls contained 3% DMSO (low control), or 30 uM of Compound Y (high control). After the 20 minute incubation, the reaction was stopped with the addition of 100 μL of ice cold 20% acetic acid. cGMP concentrations in all samples were determined using the cGMP HTRF (Cisbio P/N: 62GM2PEC) assay per manufacturer's instructions. A cGMP standard curve was fit using a 4-parameter fit (log(inhibitor) vs. response-variable slope) using GraphPad Prism Software v.6. Samples were diluted appropriately to ensure that values fell within the linear range of the standard curve. Data were fit using a 4-parameter fit (log(agonist) vs. response-variable slope) using GraphPad Prism Software v.6. The EC50 was interpolated from the curve fit and is defined as the concentration at which the compound elicits 50% of the maximal response of the 30 uM of Compound Y, the high control compound.

[2] = target: T2, soluble guanylate cyclase (sGC) (Homo sapiens, UniProt Q02108+Q02153); assay: sGC-HEK-cGMP assay with LC/MS detection; assay type: cell-based; settings: HEK293 whole cells, LC/MS detection of cGMP, 10 μM DETA-NONOate; 50% of high control response (30 μM Compound Y); read-out: Absolute EC50 (nM)- binned (~)
T2 construct: endogenously expressing soluble guanylate cyclase (sGC); endogenous in cells; host or cells: HEK293
T2 sequence (Q02153 1-619): T1 sequence (Q02153 1-619)
T2 sequence (Q02108 1-690): T1 sequence (Q02108 1-690)

[3] = test system: lambs with acute pulmonary hypertension; settings: cited from earlier work; for effect on mean arterial pressure / pulmonary vasodilation / transpulmonary cGMP release / systemic arterial oxygenation: inhaled microparticles, awake lambs; for effect on mean arterial pressure / pulmonary vasodilation / transpulmonary cGMP release: U-46619 infusion
sGC enzyme = target: T3, sGC enzyme (Homo sapiens, UniProt Q02108+Q02153); assay: cGMP GloSensor cell-based assay, 384-well format; settings: read-out: sGC_HEK_GloSensor EC50/IC50 Abs (Norm) (nM) Binned (~)
T3 construct: host or cells: HEK293 cells expressing GloSensor 40F cGMP
T3 sequence (Q02153 1-619): T1 sequence (Q02153 1-619)
T3 sequence (Q02108 1-690): T1 sequence (Q02108 1-690)
Description: Human embryonic kidney cells (HEK293) cells expressing GloSensor™ 40F cGMP (Part No: CS182801, Promega) were used to evaluate the activity of test compounds. The luminescent biosensors (engineered luciferase) that were incorporated into these cells detect cGMP formed by the compounds stimulating the sGC enzyme and emit luminescence.
cGMP GloSensor cells were maintained in Dulbecco's Modification of Eagle's Medium (DMEM) supplemented with fetal bovine serum (FBS) (10% final) and hygromycine (200 ug/ml). The day before assay, cells were plated in DMEM with 10% FBS in a 50 μL volume at a density of 1.5×10^4 cells/well in a poly-D-lysine coated 384-well flat white-bottom plate (Corning Cat No 35661). Cells were incubated overnight at 37° C. in a humidified chamber with 5% CO2. The next day, medium was removed and cells were replaced with 40 ul/well of GloSensor™, 2 mM (Promega Cat No E1291). Cells were treated for 90 minutes at 25° C. to allow the substrate to equilibrate in the cells. Test compounds and Diethylenetriamine NONOate (DETA-NONOate) was diluted to 3 mM (20×) in serum-free CO2 independent medium and serially diluted at 4× dilutions to create 5× dose curve from which 10 ul was added to the wells (x μM concentration for test compound solution and 10 μM concentration for DETA-NONOate solution; wherein x is one of the following final concentrations). • 30000 nM • 7500 nM • 1875 nM • 468.75 nM • 117.19 nM • 29.29 nM • 7.32 nM • 1.83 nM • 0.46 nM • 0.114 nM • 0.029 nM
For the kinetics studies, luminescense was measured right away for 0.2 sec per well with Envision (Perkin Elmer model No). For endpoint SAR screening, data were collected after 55 min incubation at room temperature.
Data analysis was carried out as indicated above in Example 2A.

| Structure (SMILES) | EC50 [1] [nM] | EC50 [2] [nM] | also measured |
| --- | --- | --- | --- |
| O=C(Cc1c[nH]nc1O)Nc1ccnc(-c2cc(-c3ccon3)n(Cc3ccccc3F)n2)n1 [Compound 45] | ≤ 1000 | > 1000 |  |
| Nc1nc(-c2nn(Cc3ccccc3F)c3ncccc23)nc(N)c1N1CCOCC1 [BAY 41-8543] |  |  | magnitude and duration of pulmonary vasodilation induced by iNO ([3]; after inhaling microparticles, combined with iNO): augmented; effect on mean arterial pressure [3]: without significant effect; pulmonary vasodilation [3]: dose dependent pulmonary vasodilation; transpulmonary cGMP release [3]: increased; systemic arterial oxygenation [3]: increased |
| Fc1ccccc1Cn1nc(-c2ncc(F)c(Nc3nnc(C(F)(F)F)s3)n2)cc1-c1ccon1 [Compound 11] | ≤ 1000 | > 1000 |  |
| O=C(O)CCCCN(CCc1ccccc1OCc1ccc(CCc2ccccc2)cc1)Cc1ccc(C(=O)O)cc1 [BAY 58-2667] |  |  | pulmonary vasodilation and transpulmonary cGMP release after treatment with ODQ ([3]; inhaled microparticles after ODQ): greatly enhanced; effect on mean arterial pressure [3]: without significant effect; pulmonary vasodilation [3]: dose dependent pulmonary vasodilation; transpulmonary cGMP release [3]: increased; systemic arterial oxygenation [3]: increased |
| O=S1(=O)Cc2cnc(-c3cc(-c4ccon4)n(Cc4ccccc4F)n3)nc2C1 [Compound 3] | ≤ 1000 | > 30000 |  |
| Fc1ccccc1Cn1nc(-c2ncc(N3CCOCC3)cn2)cc1-c1ccon1 [Compound 37] | ≤ 1000 | > 30000 |  |
| Oc1nnc2n1CCN(c1nc(-c3cc(-c4ccon4)n(Cc4ccccc4F)n3)ncc1F)C2 [Compound 44] | 100 to 1000 | < 100 |  |
| NC(=O)CC(=O)Nc1ccnc(-c2cc(-c3ccon3)n(Cc3ccccc3F)n2)n1 [Compound 17] | ≤ 1000 | > 30000 |  |
| NC(=O)C(=O)Nc1ccnc(-c2cc(-c3ccon3)n(Cc3ccccc3F)n2)n1 [Compound 4] | ≤ 1000 | > 1000 |  |
| O=C(O)Cc1c[nH]n(-c2nc(-c3cc(-c4ccon4)n(Cc4ccccc4F)n3)ncc2F)c1=O [Compound 39] | ≤ 1000 | > 1000 |  |
| Nc1nc(-c2nn(Cc3ccccc3F)c3ncccc23)ncc1C1CC1 [BAY 41-2272] |  |  | effect on mean arterial pressure [3]: without significant effect; pulmonary vasodilation [3]: dose dependent pulmonary vasodilation; transpulmonary cGMP release [3]: increased |
| O=c1onc2cnc3ccccc3n12 [ODQ, 1H-[1,2,4]oxadiazolo[4,3-a]quinoxalin-1-one] |  |  | pulmonary vasodilator effect of iNO ([3]; intravenous administration): markedly reduced |
| O=C(CCl)NCC(=O)Nc1ccnc(-c2cc(-c3ccon3)n(Cc3ccccc3F)n2)n1 [Compound 32] | 100 to 1000 | 100 to 1000 |  |
| OCCN1CCN(c2nc(-c3cc(-c4ccon4)n(Cc4ccccc4F)n3)ncc2F)CC1 [Compound 170, 2-(4-(5-fluoro-2-(1-(2-fluorobenzyl)-5-(isoxazol-3-yl)-1H-pyrazol-3-yl)pyrimidin-4-yl)piperazin-1-yl)ethanol] |  |  | EC50 (sGC enzyme): < 100 nM |
| CC(=O)c1cc(-c2nncc(N)n2)nn1Cc1ccccc1F [Compound 198] |  |  | EC50 (sGC enzyme): > 1000 nM |
| O=C(Nc1ccnc(-c2cc(-c3ccon3)n(Cc3ccccc3F)n2)n1)c1cc(O)no1 [Compound 27] | ≤ 1000 | > 1000 |  |
| NCC(=O)OCCCNc1nc(-c2cc(-c3ccon3)n(Cc3ccccc3F)n2)ncc1F [Compound 177, 3-((5-fluoro-2-(1-(2-fluorobenzyl)-5-(isoxazol-3-yl)-1H-pyrazol-3-yl)pyrimidin-4-yl)amino)propyl 2-aminoacetate] |  |  | EC50 (sGC enzyme): < 100 nM |
| O=C1C[C@H](O)C[C@@H](CCNc2nc(-c3cc(-c4ccon4)n(Cc4ccccc4F)n3)ncc2F)O1 [Compound 133, (4R,6R)-6-(2-((5-fluoro-2-(1-(2-fluorobenzyl)-5-(isoxazol-3-yl)-1H-pyrazol-3-yl)pyrimidin-4-yl)amino)ethyl)-4-hydroxytetrahydro-2H-pyran-2-one] |  |  | EC50 (sGC enzyme): < 100 nM |
| O=C(O)Cc1cn(-c2nc(-c3cc(-c4ccon4)n(Cc4ccccc4F)n3)ncc2F)[nH]c1=O [Compound 38] | ≤ 1000 | 100 to 1000 |  |

More lines, main results first:

| EC50 [1] [nM] | EC50 [2] [nM] | Structure (SMILES) | also measured |
| --- | --- | --- | --- |
| ≤ 1000 | > 1000 | CC(=O)c1cc(-c2ncc(F)c(NCC(=O)O)n2)nn1Cc1ccccc1F [Compound 86] |  |
| 100 to 1000 | 100 to 1000 | C[C@](N)(CNc1nc(-c2cc(-c3ccon3)n(Cc3ccccc3F)n2)ncc1F)C(F)(F)F [Compound 108] |  |
| ≤ 1000 | > 1000 | CS(=O)(=O)C1(C(=O)Nc2ccnc(-c3cc(-c4ccon4)n(Cc4ccccc4F)n3)n2)CC1 [Compound 50] |  |
| ≤ 1000 | > 1000 | O=C(O)C1Cn2c(nnc2C(F)(F)F)CN1c1nc(-c2cc(-c3ccon3)n(Cc3ccccc3F)n2)ncc1F (stereo not drawn) [Compound 62] |  |
| ≤ 1000 | > 1000 | CC(=O)c1cc(-c2ncc(F)c(N3CCS(=O)(=O)CC3)n2)nn1Cc1ccccc1F [Compound 78] |  |
| ≤ 1000 | > 1000 | CC(=O)c1cc(-c2ncc(F)c(O)n2)nn1Cc1cccc(F)c1F [Compound 83] |  |
| ≤ 1000 | > 1000 | Cn1c(=O)c(CC(N)=O)cn1-c1nc(-c2cc(-c3ccon3)n(Cc3ccccc3F)n2)ncc1F [Compound 56] |  |
